Experimental findings from patent US7320979B2, “N-[(piperazinyl)hetaryl]arylsulfonamide compounds” (Abbott GmbH & Co. KG., priority 2003, dated 2008) are described below.

Assay [1] deals with T1, human dopamine D3 receptors (Homo sapiens, UniProt P35462).
T1 construct: expressed in transfected cells; host or cells: HEK-293
As to the kind of experiment: Dopamine D3 receptor binding, displacement of [125I]-iodosulpride. The note with it: membranes of HEK-293 cells stably expressing human D3 receptors; 0.1 nM [125I]-iodosulpride; 25° C., 60 minutes. As for the experimental part:
(§1) The substance to be tested was either dissolved in methanol/Chremophor® (BASF-AG) or in dimethyl sulfoxide and then diluted with water to the desired concentration.
(§2) Each assay mixture was run in triplicate.
The incubation buffer contained 50 mM tris, 120 mM NaCl, 5 mM KCl, 2 mM CaCl2, 2 mM MgCl2 and 0.1% bovine serum albumin, 10 μM […] and 0.1% ascorbic acid (prepared fresh daily). The buffer was adjusted to pH 7.4 with HCl.
(§3) After having been incubated at 25° C. for 60 minutes, the assay mixtures were filtered through a Whatman GF/B glass fiber filter under vacuum using a cell collecting device. The filters were transferred to scintillation viols using a filter transfer system. After 4 ml of Ultima Gold® (Packard) have been added, the samples were shaken for one hour and the radioactivity was then counted in a Beta-Counter (Packard, Tricarb 2000 or 2200CA). The cpm values were converted into dpm using a standard quench series and the program belonging to the instrument.
(§4) The inhibition curves were analyzed by means of iterative nonlinear regression analysis using the Statistical Analysis System (SAS) which is similar to the “LIGAND” program described by Munson and Rodbard.

The target in assay [2] is T2, human dopamine D2L receptors (long isoform) (Homo sapiens, UniProt P14416).
T2 construct: expressed in transfected cells; host or cells: HEK-293
T2 sequence (P14416 whole entry, canonical isoform): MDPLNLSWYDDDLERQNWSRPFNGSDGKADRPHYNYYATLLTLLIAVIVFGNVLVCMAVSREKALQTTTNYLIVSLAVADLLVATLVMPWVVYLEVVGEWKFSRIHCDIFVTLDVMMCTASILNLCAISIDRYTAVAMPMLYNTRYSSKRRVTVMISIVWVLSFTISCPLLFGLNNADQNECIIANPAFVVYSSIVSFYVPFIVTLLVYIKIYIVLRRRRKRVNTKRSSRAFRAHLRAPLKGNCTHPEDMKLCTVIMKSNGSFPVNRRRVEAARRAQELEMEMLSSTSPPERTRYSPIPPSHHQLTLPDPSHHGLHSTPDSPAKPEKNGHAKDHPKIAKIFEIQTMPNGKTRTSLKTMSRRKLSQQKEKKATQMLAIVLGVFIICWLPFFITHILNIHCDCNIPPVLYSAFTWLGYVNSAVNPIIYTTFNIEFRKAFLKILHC
As to the kind of experiment: Dopamine D2L receptor binding, displacement of [125I] iodospiperone. The note with it: footnote: ratio of the Ki values of the D3 and D2L binding tests. The procedure:
as §1, §2
The incubation buffer contained 50 mM tris, 120 mM NaCl, 5 mM KCl, 2 mM CaCl2, 2 mM MgCl2 and 0.1% bovine serum albumin. The buffer was adjusted to pH 7.4 with HCl.
as §3, §4

T1 sequence (P35462 whole entry): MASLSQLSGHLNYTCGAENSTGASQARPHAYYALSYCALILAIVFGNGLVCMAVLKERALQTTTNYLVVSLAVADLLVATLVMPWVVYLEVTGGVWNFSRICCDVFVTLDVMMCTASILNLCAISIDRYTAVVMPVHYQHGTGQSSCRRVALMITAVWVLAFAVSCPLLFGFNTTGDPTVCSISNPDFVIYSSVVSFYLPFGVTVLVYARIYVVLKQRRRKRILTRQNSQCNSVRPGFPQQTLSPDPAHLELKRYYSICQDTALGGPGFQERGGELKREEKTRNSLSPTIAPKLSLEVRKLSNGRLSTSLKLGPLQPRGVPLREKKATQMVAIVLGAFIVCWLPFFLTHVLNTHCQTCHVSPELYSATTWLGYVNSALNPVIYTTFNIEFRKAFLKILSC

In assay [1], `CCN1CCN(c2ncc(NS(=O)(=O)c3ccc(C(C)C)cc3)cn2)C[C@@H]1C.Cl` [Example 54, N-[2-((S)-4-Ethyl-3-methyl-piperazin-1-yl)-pyrimidin-5-yl]-4-isopropylbenzenesulfonamide, hydrochloride] showed an inhibition constant (Ki) of 2.3 nM. The “Selectivity vs. D2L” value in assay [2] is listed as 84.

For `C=CCN1CC2CC1CN2c1ccc(NS(=O)(=O)c2ccc(C(C)C)cc2)cn1.Cl` (centres unmarked) [Example 30, N-[6-(5-Allyl-2,5-diazabicyclo[2.2.1]hept-2-yl)pyridin-3-yl]-4-isopropylbenzenesulfonamide hydrochloride], the Ki in assay [1] came out at 11.1 nM. Moreover, the “Selectivity vs. D2L” value in assay [2] came to 17.

For the compound `CCN1CCN(c2ncc(NS(=O)(=O)c3ccc(C(C)C)cc3)cn2)CC1.Cl` [Example 53, N-[2-(4-Ethyl-piperazin-1-yl)-pyrimidin-5-yl]-4-isopropylbenzenesulfonamide, hydrochloride], the inhibition constant (Ki) in assay [1] worked out at 8.8 nM. For the same compound, in assay [2], the “Selectivity vs. D2L” value stood at 149.

In turn, `CCCN1CCN(c2ncc(NS(=O)(=O)c3ccc(C(C)C)cc3)cn2)C[C@@H]1C.Cl` [Example 56, 4-Isopropyl-N-[2-((S)-3-methyl-4-propyl-piperazin-1-yl)-pyrimidin-5-yl]-benzenesulfonamide, hydrochloride] registered a Ki in assay [1] of 1.6 nM. Further, in assay [2], the “Selectivity vs. D2L” value came out at 399.

In turn, `CCCN1CCN(c2ccc(NS(=O)(=O)c3ccc(C(C)C)cc3)c(OC)n2)C[C@@H]1C.Cl` [Example 49, 4-Isopropyl-N-[2-methoxy-6-((S)-3-methyl-4-propyl-piperazin-1-yl)-pyridin-3-yl]-benzenesulfonamide, hydrochloride] showed an inhibition constant Ki in assay [1] of 0.4 nM. Further, in assay [2], the “Selectivity vs. D2L” value amounted to 19.

In the case of `CC(C)c1ccc(S(=O)(=O)Nc2ccc(N3CCNCC3)nc2)cc1` [Example 7, 4-Isopropyl-N-(6-piperazin-1-ylpyridin-3-yl)benzenesulfonamide], the Ki in assay [1] came out at 11.4 nM. Also, the “Selectivity vs. D2L” value in assay [2] stood at 68.

As to `C=Cc1ccc(S(=O)(=O)Nc2cnc(N3CCN(CCC)CC3)cc2C)cc1.Cl` [Example 39, N-[4-Methyl-6-(4-propylpiperazin-1-yl)pyridin-3-yl]-4-vinylbenzenesulfonamide hydrochloride], affinity in assay [1] was put at a Ki of 34.6 nM. Besides, in assay [2], the “Selectivity vs. D2L” value turned out to be 30.

In turn, `CCCN1CCN(c2ccc(OS(=O)(=O)c3ccc(C(C)C)cc3)cn2)CC1.Cl` [Example 60, 4-Isopropyl-benzenesulfonic acid 6-(4-propyl-piperazin-1-yl)-pyridin-3-yl ester, hydrochloride] registered an inhibitory constant (Ki) in assay [1] of 17.4 nM. For the same compound, the “Selectivity vs. D2L” value in assay [2] was found to be 47.

In assay [1], `CC(C)c1ccc(S(=O)(=O)Nc2ccc(N3CCN(CCCF)CC3)nc2)cc1.Cl` [Example 32, N-{6-[4-(3-Fluoropropyl)piperazin-1-yl]pyridin-3-yl}-4-isopropylbenzenesulfonamide hydrochloride] returned a Ki of 17 nM. The “Selectivity vs. D2L” value in assay [2] is recorded as 74.

Take `CCCN1CCN(c2ccc(NS(=O)(=O)c3ccc(Cl)cc3)cn2)CC1` [Example 28, 4-Chloro-N-[6-(4-propylpiperazin-1yl)pyridin-3-yl]-benzenesulfonamide]: in assay [1], affinity was put at a Ki of 25.3 nM. For the same compound, the “Selectivity vs. D2L” value in assay [2] stood at 67.

With `C=CCN1CCN(c2ccc(NS(=O)(=O)c3ccc(C(C)C)cc3)cn2)C[C@@H]1C` [Example 13a, N-{6-[4-Allyl-(3S)-methylpiperazin-1-yl]pyridin-3-yl}-4-isopropylbenzenesulfonamide], in assay [1], the inhibitory constant (Ki) is 2.7 nM. For the same compound, in assay [2], the “Selectivity vs. D2L” value is 96.

With `C=CCN1CCN(c2ccc(NS(=O)(=O)c3ccc(CC)cc3)cn2)CC1.Cl` [Example 5, N-[6-(4-Allylpiperazin-1-yl)pyridin-3-yl]-4-ethylbenzenesulfonamide hydrochloride], the affinity in assay [1] corresponds to a Ki of 11.4 nM. Further, the “Selectivity vs. D2L” value in assay [2] is 108.

In the case of `C=CCN1CCN(c2ccc(NS(=O)(=O)c3ccc(Br)cc3)cn2)CC1.Cl` [Example 19, N-[2-(4-Allylpiperazin-1-yl)pyridin-5-yl]-4-bromobenzenesulfonamide hydrochloride], the inhibition constant (Ki) in assay [1] turned out to be 36.9 nM. Besides, the “Selectivity vs. D2L” value in assay [2] was found to be 91.

In turn, `C=CCN1CCN(c2ccc(NS(=O)(=O)c3ccc(C=C)cc3)cn2)CC1.Cl` [Example 6, N-[6-(4-Allylpiperazin-1-yl)pyridin-3-yl]-4-vinylbenzenesulfonamide hydrochloride] showed an inhibitory constant (Ki) in assay [1] of 9.7 nM. Also, the “Selectivity vs. D2L” value in assay [2] worked out at 169.

`CCCN1CCN(c2ccc(NS(=O)(=O)c3ccc(CC)cc3)cn2)CC1.Cl` [Example 34, 4-Ethyl-N-[6-(4-propylpiperazin-1-yl)pyridin-3-yl]-benzenesulfonamide hydrochloride] came in with a Ki in assay [1] of 9.6 nM. Besides, in assay [2], the “Selectivity vs. D2L” value was found to be 73.

`C=CCN1CCN(c2ccc(NS(=O)(=O)c3ccc(C(C)C)cc3)cn2)CC1` [Example 1, N-[6-(4-Allylpiperazin-1-yl)pyridin-3-yl]-4-isopropylbenzenesulfonamide] gave a Ki in assay [1] of 3 nM. Moreover, the “Selectivity vs. D2L” value in assay [2] is 232.

Compound `C=CCN1CCN(c2cc(C)c(NS(=O)(=O)c3ccc(C(C)C)cc3)cn2)CC1.Cl` [Example 37, N-[6-(4-Allylpiperazin-1-yl)-4-methylpyridin-3-yl]-4-isopropylbenzenesulfonamide hydrochloride] showed a Ki in assay [1] of 2.7 nM. The “Selectivity vs. D2L” value in assay [2] is given as 86.

In assay [1], `CC(C)c1ccc(S(=O)(=O)Nc2ccc(N3CCN(C)CC3)nc2)cc1` [Example 10, 4-Isopropyl-N-[6-(4-methylpiperazin-1-yl)pyridin-3-yl]benzenesulfonamide] gave a Ki of 7.5 nM. For the same compound, in assay [2], the “Selectivity vs. D2L” value was 93.

With `CC(C)c1ccc(S(=O)(=O)Nc2cnc(N3CCNCC3)nc2)cc1` [Example 52, 4-Isopropyl-N-(2-piperazin-1-yl-pyrimidin-5-yl)-benzenesulfonamide], the Ki in assay [1] came to 14.2 nM. The “Selectivity vs. D2L” value in assay [2] worked out at 63.
